Values joined by “and” are separate entries in the source; they are usually repeats but may differ in a detail not shown here. Equal entries are not always repeated.
Legend:
[1] = Oral P2A and intravenous meropenem in jejunal-fistulated dogs; format: in vivo, laboratory beagles; settings: peak level in dog jejunum; meropenem 30 mg/kg IV alone; individual dogs
Procedure: The ability of P2A to degrade meropenem in the dog intestinal tract was evaluated using laboratory beagles that had permanent jejunal fistulas. The fistulas allowed the repeated collection of jejunal chyme specimens from these animals. Dogs were treated with peroral P2A (1 mg/kg) in a liquid formulation (PBS buffer), and/or intravenous meropenem (30 mg/kg). Serum samples were collected and serum meropenem levels quantified. Jejunal chyme samples were collected and meropenem and P2A levels were quantified. Meropenem levels in serum and chyme were measured using a plate diffusion method using meropenem susceptible Micrococcus luteus TS504 as the test strain. P2A activity levels in chyme were determined spectrophotometrically using meropenem as a substrate. Meropenem hydrolysis was monitored at a wavelength of 297 nm.

[2] = tested on: gut microbiome; design: species or system Yorkshire piglets; settings: in vivo
Procedure: The animals were treated with ertapenem (30 mg/kg) via intravenous infusion one a day for a total of 7 days.
Two pre-treatment fecal samples were obtained, the first 4 days after the animals arrived at the animal treatment facility (Day −7), and the second 7 days after arrival (Day −4). An additional 3 fecal samples were collected at Day 4, Day 8, and Day 9. The fecal samples were collected using the OMNIgene GUT sample collection kits (OMR-200, DNA Genotek, Ontario, Canada) and stored at room temperature away from light until all samples were collected. DNA isolated from the fecal samples was subjected to deep sequencing of the intestinal microbiome and analyses.
DNA was isolated from the fecal samples and subjected to whole genome shotgun sequencing using an Illumine HiSeq system with a target of 20 million 100 bp single reads per sample. […]
The percent similarity based on the relative bacterial strain abundance was calculated. […] Animals began ertapenem treatment on Day 1 and the percent similarity decreased every day the animals were evaluated. […]
A statistical analysis was performed to determine the probability that the microbiomes before and after antibiotic treatment remained the same or were different. The microbiome sequence data were analyzed using a parameterization of the Dirichlet-Multinomial distribution (La Rosa et al., 2012) to perform a Likelihood Ratio Test. […]

Meropenem [1]	Structure (SMILES)	microbiome diversity (percent similarity of strain relative abundance) [2]
3.0 ug/ml (2×) and 3.2 ug/ml	C[C@@H](O)[C@H]1C(=O)N2C(C(=O)O)=C(S[C@@H]3CN[C@H](C(=O)N(C)C)C3)[C@H](C)[C@H]12 [Meropenem]	–
–	C[C@@H](O)[C@H]1C(=O)N2C(C(=O)O)=C(S[C@@H]3CN[C@H](C(=O)Nc4cccc(C(=O)O)c4)C3)[C@H](C)[C@H]12 [ertapenem]	causes a loss of diversity in the microbiome
